Experiment [1] deals with Serine/threonine-protein kinase PLK1 (Homo sapiens, UniProt P53350). Description: Selectivity interaction (ProQinase) EUB0000171b PLK1.
Experiment [2] deals with T1, Ephrin type-A receptor 6 (Homo sapiens) (UniProt Q9UF33).
T1 sequence (whole entry): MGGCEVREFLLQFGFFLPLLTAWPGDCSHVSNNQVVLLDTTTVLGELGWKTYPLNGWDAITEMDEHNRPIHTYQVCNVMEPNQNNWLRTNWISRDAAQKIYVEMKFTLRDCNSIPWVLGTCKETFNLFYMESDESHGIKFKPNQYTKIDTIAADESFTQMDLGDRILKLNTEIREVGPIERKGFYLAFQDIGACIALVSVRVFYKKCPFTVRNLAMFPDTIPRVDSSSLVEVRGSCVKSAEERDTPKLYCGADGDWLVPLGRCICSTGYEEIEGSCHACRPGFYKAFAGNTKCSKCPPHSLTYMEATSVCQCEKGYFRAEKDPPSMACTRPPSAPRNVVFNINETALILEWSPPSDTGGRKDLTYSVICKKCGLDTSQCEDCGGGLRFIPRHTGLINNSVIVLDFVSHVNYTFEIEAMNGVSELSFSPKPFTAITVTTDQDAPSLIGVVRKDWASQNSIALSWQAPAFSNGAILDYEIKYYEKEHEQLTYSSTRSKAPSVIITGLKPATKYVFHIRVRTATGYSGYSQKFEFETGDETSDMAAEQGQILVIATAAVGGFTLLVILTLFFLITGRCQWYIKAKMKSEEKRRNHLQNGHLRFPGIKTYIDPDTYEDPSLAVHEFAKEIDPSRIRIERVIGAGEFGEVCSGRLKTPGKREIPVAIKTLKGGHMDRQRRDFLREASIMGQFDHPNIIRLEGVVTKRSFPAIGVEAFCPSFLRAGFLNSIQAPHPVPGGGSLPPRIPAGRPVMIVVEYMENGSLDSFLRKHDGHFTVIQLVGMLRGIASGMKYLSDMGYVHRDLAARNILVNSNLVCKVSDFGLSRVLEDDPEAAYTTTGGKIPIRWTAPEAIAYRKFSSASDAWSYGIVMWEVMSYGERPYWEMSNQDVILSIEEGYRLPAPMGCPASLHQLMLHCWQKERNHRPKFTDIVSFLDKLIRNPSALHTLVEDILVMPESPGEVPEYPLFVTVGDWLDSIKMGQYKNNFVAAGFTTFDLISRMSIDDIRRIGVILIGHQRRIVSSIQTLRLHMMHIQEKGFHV
Briefly: Selectivity interaction (KinomeScan (DiscoverX)) EUB0000607a EPHA6. The following applies: at 10 µM.

Experiment [3] has as its target T2, Dual specificity mitogen-activated protein kinase kinase 4 (Homo sapiens) (UniProt P45985).
T2 sequence (whole entry): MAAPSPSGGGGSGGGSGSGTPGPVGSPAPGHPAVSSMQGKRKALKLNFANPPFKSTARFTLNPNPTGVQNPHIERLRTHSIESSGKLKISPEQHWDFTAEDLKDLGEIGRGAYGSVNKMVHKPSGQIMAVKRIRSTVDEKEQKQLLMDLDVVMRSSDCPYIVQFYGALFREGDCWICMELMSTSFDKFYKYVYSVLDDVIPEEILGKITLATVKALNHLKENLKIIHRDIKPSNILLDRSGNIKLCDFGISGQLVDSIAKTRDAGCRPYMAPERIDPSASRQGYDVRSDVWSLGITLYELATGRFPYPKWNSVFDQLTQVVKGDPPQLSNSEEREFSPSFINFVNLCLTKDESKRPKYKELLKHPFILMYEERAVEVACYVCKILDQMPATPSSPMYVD
Briefly: Selectivity interaction (KinomeScan (DiscoverX)) EUB0000595a MAP2K4. To be noted: at 10 µM.

Experiment [4] addresses Serine/threonine-protein kinase 3 (Homo sapiens, UniProt Q13188). Briefly: Selectivity interaction (ADP-Glo kinase assay) EUB0001619a STK3. In general terms: In ADP-Glo the light output rises with the ADP produced.
Experiment [5] addresses T3, Tyrosine-protein kinase receptor TYRO3 (Homo sapiens) (UniProt Q06418).
T3 sequence (whole entry): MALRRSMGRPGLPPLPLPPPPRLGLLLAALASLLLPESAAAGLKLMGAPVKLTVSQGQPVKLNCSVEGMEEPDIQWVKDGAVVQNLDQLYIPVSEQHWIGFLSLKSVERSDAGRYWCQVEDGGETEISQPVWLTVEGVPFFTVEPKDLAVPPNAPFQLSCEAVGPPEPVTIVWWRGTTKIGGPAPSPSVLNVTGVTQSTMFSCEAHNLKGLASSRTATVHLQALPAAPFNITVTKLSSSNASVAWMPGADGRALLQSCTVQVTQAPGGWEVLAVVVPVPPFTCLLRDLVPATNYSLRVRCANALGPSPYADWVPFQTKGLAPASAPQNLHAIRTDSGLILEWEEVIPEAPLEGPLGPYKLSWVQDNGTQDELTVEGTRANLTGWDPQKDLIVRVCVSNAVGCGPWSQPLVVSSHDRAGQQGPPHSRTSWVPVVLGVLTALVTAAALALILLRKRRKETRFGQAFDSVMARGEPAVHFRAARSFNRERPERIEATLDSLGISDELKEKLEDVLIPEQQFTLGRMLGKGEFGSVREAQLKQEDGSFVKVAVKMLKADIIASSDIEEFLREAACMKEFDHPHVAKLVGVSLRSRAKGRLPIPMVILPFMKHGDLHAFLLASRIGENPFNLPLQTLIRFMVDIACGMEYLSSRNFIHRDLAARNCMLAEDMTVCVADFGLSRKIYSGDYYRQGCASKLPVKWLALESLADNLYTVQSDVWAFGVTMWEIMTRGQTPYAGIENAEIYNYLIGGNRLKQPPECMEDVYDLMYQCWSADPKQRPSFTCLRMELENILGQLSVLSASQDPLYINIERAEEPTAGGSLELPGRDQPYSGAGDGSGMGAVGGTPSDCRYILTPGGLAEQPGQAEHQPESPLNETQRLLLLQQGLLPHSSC
Briefly: Selectivity interaction (KinomeScan (DiscoverX)) EUB0001619a TYRO3. The following applies: at 1 µM.

Serine/threonine-protein kinase PLK1, sequence (P53350 whole entry): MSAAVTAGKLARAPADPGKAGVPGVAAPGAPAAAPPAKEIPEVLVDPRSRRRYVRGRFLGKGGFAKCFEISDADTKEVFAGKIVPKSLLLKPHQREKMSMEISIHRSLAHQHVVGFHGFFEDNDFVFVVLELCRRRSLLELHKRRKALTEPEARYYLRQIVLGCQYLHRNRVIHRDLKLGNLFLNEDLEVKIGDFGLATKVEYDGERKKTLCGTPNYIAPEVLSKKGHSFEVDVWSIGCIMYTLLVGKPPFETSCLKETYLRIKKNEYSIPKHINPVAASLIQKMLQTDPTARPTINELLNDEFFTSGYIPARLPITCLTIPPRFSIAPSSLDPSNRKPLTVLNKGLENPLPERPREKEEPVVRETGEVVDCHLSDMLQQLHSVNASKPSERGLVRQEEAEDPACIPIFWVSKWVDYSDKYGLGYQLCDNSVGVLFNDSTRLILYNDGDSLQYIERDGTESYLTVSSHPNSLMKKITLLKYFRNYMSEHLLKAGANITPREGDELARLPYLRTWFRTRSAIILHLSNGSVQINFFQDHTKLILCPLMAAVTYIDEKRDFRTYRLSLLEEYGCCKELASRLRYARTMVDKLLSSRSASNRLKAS
Serine/threonine-protein kinase 3, sequence (Q13188 whole entry): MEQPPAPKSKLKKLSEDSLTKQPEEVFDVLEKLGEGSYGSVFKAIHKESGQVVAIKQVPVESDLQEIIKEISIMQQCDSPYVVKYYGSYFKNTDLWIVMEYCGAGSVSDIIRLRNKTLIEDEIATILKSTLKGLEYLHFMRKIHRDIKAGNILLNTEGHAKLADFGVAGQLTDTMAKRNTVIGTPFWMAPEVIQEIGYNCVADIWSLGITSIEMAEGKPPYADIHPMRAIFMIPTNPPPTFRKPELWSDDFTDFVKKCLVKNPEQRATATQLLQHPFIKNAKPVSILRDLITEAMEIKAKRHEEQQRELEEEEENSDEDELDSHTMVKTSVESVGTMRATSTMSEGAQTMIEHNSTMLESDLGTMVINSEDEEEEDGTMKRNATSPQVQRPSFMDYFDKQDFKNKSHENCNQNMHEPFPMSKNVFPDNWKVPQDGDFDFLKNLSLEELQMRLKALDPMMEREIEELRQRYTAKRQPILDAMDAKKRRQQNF

`C=CC(=O)Nc1cccc(C(=O)Nc2ccc(Nc3cc(-c4[nH]c(SC)nc4C)ccn3)cc2)c1`: the % of control was determined as 98% in experiment [1] (at 1 µM) and 96% in experiment [1] (at 5 µM).

In turn, `CNC(=O)Nc1ccc(-c2nc(N3CC4CCC(C3)O4)c3cnn(C4CCC5(CC4)OCCO5)c3n2)cc1` came in with a % of control in experiment [2] of 98%.

Take `COCC(=O)NC/C=C/c1ccc2ncnc(Nc3ccc(Oc4ccc(C)nc4)c(C)c3)c2c1` [CP-724714]: in experiment [3], the % of control is 95%.

For the compound `N#Cc1cccc(-c2c[nH]c3ncnc(N4CCOCC4)c23)c1`, the IC50 (commonly the midpoint of a concentration-inhibition curve) in experiment [4] worked out at 76 nM. Also, the % of control in experiment [5] stood at 100%.

These data come from ChEMBL document CHEMBL5465560, “Selectivity Literature for EUbOPEN Chemogenomic Library” (2024).
